Results published in PubChem BioAssay (NCI).
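96-well plates; 48 h exposure; 5 concentrations. Endpoints by linear interpolation between flanking doses. Not reached: highest tested concentration assigned. Abbreviation: GI50, concentration required for 50% inhibition of growth. Definition used: TGI = concentration required for complete inhibition of growth.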

Tests used:
Test in all cases: DTP human tumour cell line panel, 48 h
ACHN renal = test system: ACHN renal
SW-620 colon = test system: SW-620 colon
NCI-H460 lung = test system: NCI-H460 lung
UACC-62 melanoma = test system: UACC-62 melanoma
NCI-H226 lung = test system: NCI-H226 lung
SK-MEL-28 melanoma = test system: SK-MEL-28 melanoma
SF-268 CNS = test system: SF-268 CNS
CAKI-1 renal = test system: CAKI-1 renal
HOP-62 NSCLC = test system: HOP-62 NSCLC
HCT-116 colon = test system: HCT-116 colon
786-0 renal = test system: 786-0 renal
OVCAR-4 ovarian = test system: OVCAR-4 ovarian
EKVX NSCLC = test system: EKVX NSCLC
HT29 colon = test system: HT29 colon
HCT-15 colon = test system: HCT-15 colon
HS 578T breast = test system: HS 578T breast
K-562 leukemia = test system: K-562 leukemia
SF-295 CNS = test system: SF-295 CNS
SK-OV-3 ovarian = test system: SK-OV-3 ovarian
MDA-MB-231 breast = test system: MDA-MB-231 breast
SF-539 CNS = test system: SF-539 CNS
MALME-3M melanoma = test system: MALME-3M melanoma
SN12C renal = test system: SN12C renal
OVCAR-8 ovarian = test system: OVCAR-8 ovarian
COLO 205 colon = test system: COLO 205 colon
BT-549 breast = test system: BT-549 breast
SK-MEL-2 melanoma = test system: SK-MEL-2 melanoma
T-47D breast = test system: T-47D breast
MCF7 breast = test system: MCF7 breast
UO-31 renal = test system: UO-31 renal
OVCAR-5 ovarian = test system: OVCAR-5 ovarian
IGROV1 ovarian = test system: IGROV1 ovarian
NCI/ADR-RES ovarian = test system: NCI/ADR-RES ovarian
MDA-MB-435 = test system: MDA-MB-435
HCC-2998 colon = test system: HCC-2998 colon
HL-60(TB) leukemia = test system: HL-60(TB) leukemia
PC-3 prostate = test system: PC-3 prostate
MOLT-4 leukemia = test system: MOLT-4 leukemia
NCI-H23 lung = test system: NCI-H23 lung
CCRF-CEM leukemia = test system: CCRF-CEM leukemia
TK-10 renal = test system: TK-10 renal
DU-145 prostate = test system: DU-145 prostate
OVCAR-3 ovarian = test system: OVCAR-3 ovarian
RXF 393 renal = test system: RXF 393 renal
SK-MEL-5 melanoma = test system: SK-MEL-5 melanoma
KM12 colon = test system: KM12 colon
SNB-75 CNS = test system: SNB-75 CNS
A549 NSCLC = test system: A549 NSCLC
M14 melanoma = test system: M14 melanoma
RPMI-8226 leukemia = test system: RPMI-8226 leukemia
SR leukemia = test system: SR leukemia
UACC-257 melanoma = test system: UACC-257 melanoma
LOX IMVI melanoma = test system: LOX IMVI melanoma
U251 CNS = test system: U251 CNS
HOP-92 NSCLC = test system: HOP-92 NSCLC
SNB-19 CNS = test system: SNB-19 CNS
NCI-H522 lung = test system: NCI-H522 lung

Question: `CC1=NN(c2nc(N)nc(/C=C\c3ccc([N+](=O)[O-])s3)n2)C(C)(C)C1` was tested. Which GI50 (ACHN renal) did it give?
Answer: > 100 µM

Question: And the TGI (ACHN renal)?
Answer: > 100 µM

Question: And the GI50 (SW-620 colon)?
Answer: > 100 µM

Question: What about the TGI (SW-620 colon) of the same molecule?
Answer: > 100 µM

Question: And the GI50 (NCI-H460 lung)?
Answer: > 100 µM

Question: And the TGI (NCI-H460 lung)?
Answer: > 100 µM

Question: What about the GI50 (UACC-62 melanoma) of the same molecule?
Answer: > 100 µM

Question: What about the TGI (UACC-62 melanoma) of the same molecule?
Answer: > 100 µM

Question: What about the GI50 (NCI-H226 lung) of the same molecule?
Answer: > 100 µM

Question: And the TGI (NCI-H226 lung)?
Answer: > 100 µM

Question: And the GI50 (SK-MEL-28 melanoma)?
Answer: > 100 µM

Question: And the TGI (SK-MEL-28 melanoma)?
Answer: > 100 µM

Question: And the GI50 (SF-268 CNS)?
Answer: > 100 µM

Question: What about the TGI (SF-268 CNS) of the same molecule?
Answer: > 100 µM

Question: And the GI50 (CAKI-1 renal)?
Answer: > 100 µM

Question: And the TGI (CAKI-1 renal)?
Answer: > 100 µM

Question: And the GI50 (HOP-62 NSCLC)?
Answer: > 100 µM

Question: And the TGI (HOP-62 NSCLC)?
Answer: > 100 µM

Question: What about the GI50 (HCT-116 colon) of the same molecule?
Answer: > 100 µM

Question: What about the TGI (HCT-116 colon) of the same molecule?
Answer: > 100 µM

Question: What about the GI50 (786-0 renal) of the same molecule?
Answer: > 100 µM

Question: What about the TGI (786-0 renal) of the same molecule?
Answer: > 100 µM

Question: And the GI50 (OVCAR-4 ovarian)?
Answer: > 100 µM

Question: And the TGI (OVCAR-4 ovarian)?
Answer: > 100 µM

Question: And the GI50 (EKVX NSCLC)?
Answer: > 100 µM

Question: What about the TGI (EKVX NSCLC) of the same molecule?
Answer: > 100 µM

Question: And the GI50 (HT29 colon)?
Answer: 56.4 µM

Question: What about the TGI (HT29 colon) of the same molecule?
Answer: > 100 µM

Question: What about the GI50 (HCT-15 colon) of the same molecule?
Answer: > 100 µM

Question: And the TGI (HCT-15 colon)?
Answer: > 100 µM

Question: And the GI50 (HS 578T breast)?
Answer: > 100 µM

Question: And the TGI (HS 578T breast)?
Answer: > 100 µM

Question: And the GI50 (K-562 leukemia)?
Answer: 40.9 µM

Question: And the TGI (K-562 leukemia)?
Answer: > 100 µM

Question: And the GI50 (SF-295 CNS)?
Answer: > 100 µM

Question: What about the TGI (SF-295 CNS) of the same molecule?
Answer: > 100 µM

Question: And the GI50 (SK-OV-3 ovarian)?
Answer: > 100 µM

Question: What about the TGI (SK-OV-3 ovarian) of the same molecule?
Answer: > 100 µM

Question: What about the GI50 (MDA-MB-231 breast) of the same molecule?
Answer: > 100 µM

Question: And the TGI (MDA-MB-231 breast)?
Answer: > 100 µM

Question: What about the GI50 (SF-539 CNS) of the same molecule?
Answer: > 100 µM

Question: And the TGI (SF-539 CNS)?
Answer: > 100 µM

Question: And the GI50 (MALME-3M melanoma)?
Answer: > 100 µM

Question: What about the TGI (MALME-3M melanoma) of the same molecule?
Answer: > 100 µM

Question: What about the GI50 (SN12C renal) of the same molecule?
Answer: > 100 µM

Question: What about the TGI (SN12C renal) of the same molecule?
Answer: > 100 µM

Question: And the GI50 (OVCAR-8 ovarian)?
Answer: > 100 µM

Question: What about the TGI (OVCAR-8 ovarian) of the same molecule?
Answer: > 100 µM

Question: What about the GI50 (COLO 205 colon) of the same molecule?
Answer: > 100 µM

Question: And the TGI (COLO 205 colon)?
Answer: > 100 µM

Question: And the GI50 (BT-549 breast)?
Answer: > 100 µM

Question: And the TGI (BT-549 breast)?
Answer: > 100 µM

Question: What about the GI50 (SK-MEL-2 melanoma) of the same molecule?
Answer: > 100 µM

Question: And the TGI (SK-MEL-2 melanoma)?
Answer: > 100 µM

Question: What about the GI50 (T-47D breast) of the same molecule?
Answer: > 100 µM

Question: What about the TGI (T-47D breast) of the same molecule?
Answer: > 100 µM

Question: What about the GI50 (MCF7 breast) of the same molecule?
Answer: > 100 µM

Question: And the TGI (MCF7 breast)?
Answer: > 100 µM

Question: And the GI50 (UO-31 renal)?
Answer: > 100 µM

Question: What about the TGI (UO-31 renal) of the same molecule?
Answer: > 100 µM

Question: And the GI50 (OVCAR-5 ovarian)?
Answer: > 100 µM

Question: What about the TGI (OVCAR-5 ovarian) of the same molecule?
Answer: > 100 µM

Question: What about the GI50 (IGROV1 ovarian) of the same molecule?
Answer: > 100 µM

Question: What about the TGI (IGROV1 ovarian) of the same molecule?
Answer: > 100 µM

Question: And the GI50 (NCI/ADR-RES ovarian)?
Answer: > 100 µM

Question: And the TGI (NCI/ADR-RES ovarian)?
Answer: > 100 µM

Question: And the GI50 (MDA-MB-435)?
Answer: 62.8 µM

Question: And the TGI (MDA-MB-435)?
Answer: > 100 µM

Question: And the GI50 (HCC-2998 colon)?
Answer: > 100 µM

Question: What about the TGI (HCC-2998 colon) of the same molecule?
Answer: > 100 µM

Question: What about the GI50 (HL-60(TB) leukemia) of the same molecule?
Answer: > 100 µM

Question: And the TGI (HL-60(TB) leukemia)?
Answer: > 100 µM

Question: What about the GI50 (PC-3 prostate) of the same molecule?
Answer: > 100 µM

Question: What about the TGI (PC-3 prostate) of the same molecule?
Answer: > 100 µM

Question: And the GI50 (MOLT-4 leukemia)?
Answer: > 100 µM

Question: And the TGI (MOLT-4 leukemia)?
Answer: > 100 µM

Question: What about the GI50 (NCI-H23 lung) of the same molecule?
Answer: > 100 µM

Question: What about the TGI (NCI-H23 lung) of the same molecule?
Answer: > 100 µM

Question: What about the GI50 (CCRF-CEM leukemia) of the same molecule?
Answer: 77.5 µM

Question: And the TGI (CCRF-CEM leukemia)?
Answer: > 100 µM

Question: And the GI50 (TK-10 renal)?
Answer: > 100 µM

Question: And the TGI (TK-10 renal)?
Answer: > 100 µM

Question: And the GI50 (DU-145 prostate)?
Answer: > 100 µM

Question: What about the TGI (DU-145 prostate) of the same molecule?
Answer: > 100 µM

Question: What about the GI50 (OVCAR-3 ovarian) of the same molecule?
Answer: > 100 µM

Question: And the TGI (OVCAR-3 ovarian)?
Answer: > 100 µM

Question: And the GI50 (RXF 393 renal)?
Answer: > 100 µM

Question: What about the TGI (RXF 393 renal) of the same molecule?
Answer: > 100 µM

Question: And the GI50 (SK-MEL-5 melanoma)?
Answer: 40.9 µM

Question: What about the TGI (SK-MEL-5 melanoma) of the same molecule?
Answer: > 100 µM

Question: What about the GI50 (KM12 colon) of the same molecule?
Answer: > 100 µM

Question: What about the TGI (KM12 colon) of the same molecule?
Answer: > 100 µM

Question: And the GI50 (SNB-75 CNS)?
Answer: 29.9 µM

Question: What about the TGI (SNB-75 CNS) of the same molecule?
Answer: > 100 µM

Question: And the GI50 (A549 NSCLC)?
Answer: > 100 µM

Question: What about the TGI (A549 NSCLC) of the same molecule?
Answer: > 100 µM

Question: And the GI50 (M14 melanoma)?
Answer: > 100 µM

Question: What about the TGI (M14 melanoma) of the same molecule?
Answer: > 100 µM

Question: And the GI50 (RPMI-8226 leukemia)?
Answer: > 100 µM

Question: What about the TGI (RPMI-8226 leukemia) of the same molecule?
Answer: > 100 µM

Question: What about the GI50 (SR leukemia) of the same molecule?
Answer: 49.9 µM

Question: What about the TGI (SR leukemia) of the same molecule?
Answer: > 100 µM

Question: And the GI50 (UACC-257 melanoma)?
Answer: > 100 µM

Question: What about the TGI (UACC-257 melanoma) of the same molecule?
Answer: > 100 µM

Question: And the GI50 (LOX IMVI melanoma)?
Answer: > 100 µM

Question: What about the TGI (LOX IMVI melanoma) of the same molecule?
Answer: > 100 µM

Question: And the GI50 (U251 CNS)?
Answer: > 100 µM

Question: What about the TGI (U251 CNS) of the same molecule?
Answer: > 100 µM

Question: What about the GI50 (HOP-92 NSCLC) of the same molecule?
Answer: > 100 µM

Question: What about the TGI (HOP-92 NSCLC) of the same molecule?
Answer: > 100 µM

Question: And the GI50 (SNB-19 CNS)?
Answer: > 100 µM

Question: And the TGI (SNB-19 CNS)?
Answer: > 100 µM

Question: What about the GI50 (NCI-H522 lung) of the same molecule?
Answer: > 100 µM

Question: And the TGI (NCI-H522 lung)?
Answer: > 100 µM
